Data as given in ChEMBL document CHEMBL3112400, “Cannabinoid agonists showing BuChE inhibition as potential therapeutic agents for Alzheimer's disease” (Eur J Med Chem, 2014).
Active and inactive are the calls of the source. No cut-off for these calls is given here.

How the values were obtained:
[1] = molecular target: Cannabinoid receptor 2 (Homo sapiens, UniProt P34972); experiment: Displacement of [3H]-CP55940 from human CB2 receptor transfected in HEK-293EBNA cells after 90 mins by luminescence counting analysis; type: cell-based
Sequence of Cannabinoid receptor 2 (P34972 whole entry): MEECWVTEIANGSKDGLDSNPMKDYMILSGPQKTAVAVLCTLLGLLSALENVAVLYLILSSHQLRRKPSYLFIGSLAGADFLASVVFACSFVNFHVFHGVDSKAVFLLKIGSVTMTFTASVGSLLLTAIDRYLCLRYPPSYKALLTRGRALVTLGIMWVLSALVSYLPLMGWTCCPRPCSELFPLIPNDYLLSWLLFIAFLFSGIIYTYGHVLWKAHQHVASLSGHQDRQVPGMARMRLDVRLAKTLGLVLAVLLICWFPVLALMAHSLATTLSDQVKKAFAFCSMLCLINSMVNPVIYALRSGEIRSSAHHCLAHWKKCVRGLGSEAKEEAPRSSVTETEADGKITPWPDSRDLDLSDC

[2] = molecular target: T1, Acetylcholinesterase (Homo sapiens, UniProt P22303); experiment: Inhibition of human AChE using acetylthiocholine as substrate by Ellman's method
T1 sequence (P22303 whole entry): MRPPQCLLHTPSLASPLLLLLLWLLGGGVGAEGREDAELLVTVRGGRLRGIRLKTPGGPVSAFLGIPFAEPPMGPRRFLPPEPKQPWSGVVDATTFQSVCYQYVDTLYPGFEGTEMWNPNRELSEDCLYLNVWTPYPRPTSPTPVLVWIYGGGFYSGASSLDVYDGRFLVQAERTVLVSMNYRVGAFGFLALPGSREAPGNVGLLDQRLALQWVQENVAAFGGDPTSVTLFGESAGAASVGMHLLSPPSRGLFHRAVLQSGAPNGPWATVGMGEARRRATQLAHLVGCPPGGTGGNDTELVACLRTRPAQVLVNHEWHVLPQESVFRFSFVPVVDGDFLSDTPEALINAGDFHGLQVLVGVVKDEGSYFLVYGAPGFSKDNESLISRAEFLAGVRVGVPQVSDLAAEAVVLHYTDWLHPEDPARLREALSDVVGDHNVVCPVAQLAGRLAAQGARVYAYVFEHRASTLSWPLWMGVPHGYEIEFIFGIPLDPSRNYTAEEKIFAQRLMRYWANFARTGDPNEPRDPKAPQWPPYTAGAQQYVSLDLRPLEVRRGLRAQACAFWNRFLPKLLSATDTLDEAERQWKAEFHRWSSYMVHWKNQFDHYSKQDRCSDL

[3] = molecular target: T2, Cholinesterase (Homo sapiens, UniProt P06276); experiment: Inhibition of human BuChE using butyrylthiocholine as substrate by Ellman's method
T2 sequence (P06276 whole entry): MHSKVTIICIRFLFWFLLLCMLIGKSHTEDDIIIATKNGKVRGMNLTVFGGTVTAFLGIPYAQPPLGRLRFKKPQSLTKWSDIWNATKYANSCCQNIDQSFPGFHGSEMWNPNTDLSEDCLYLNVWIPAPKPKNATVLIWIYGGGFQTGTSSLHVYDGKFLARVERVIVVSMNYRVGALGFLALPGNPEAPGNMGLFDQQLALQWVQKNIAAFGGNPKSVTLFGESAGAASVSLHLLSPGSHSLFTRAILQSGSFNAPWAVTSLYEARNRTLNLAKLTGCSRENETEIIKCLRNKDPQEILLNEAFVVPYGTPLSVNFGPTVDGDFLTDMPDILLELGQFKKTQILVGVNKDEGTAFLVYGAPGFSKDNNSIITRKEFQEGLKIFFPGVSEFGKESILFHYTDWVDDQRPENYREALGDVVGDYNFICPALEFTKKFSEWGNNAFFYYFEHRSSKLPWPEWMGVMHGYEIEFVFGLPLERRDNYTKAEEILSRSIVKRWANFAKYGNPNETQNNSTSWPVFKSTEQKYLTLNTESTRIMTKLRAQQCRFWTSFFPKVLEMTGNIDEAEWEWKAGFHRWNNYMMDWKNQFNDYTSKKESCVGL

[4] = molecular target: Cannabinoid receptor 1 (Homo sapiens, UniProt P21554); experiment: Displacement of [3H]-CP55940 from human CB1 receptor transfected in HEK-293EBNA cells after 90 mins by luminescence counting analysis; type: cell-based
Sequence of Cannabinoid receptor 1 (P21554 whole entry): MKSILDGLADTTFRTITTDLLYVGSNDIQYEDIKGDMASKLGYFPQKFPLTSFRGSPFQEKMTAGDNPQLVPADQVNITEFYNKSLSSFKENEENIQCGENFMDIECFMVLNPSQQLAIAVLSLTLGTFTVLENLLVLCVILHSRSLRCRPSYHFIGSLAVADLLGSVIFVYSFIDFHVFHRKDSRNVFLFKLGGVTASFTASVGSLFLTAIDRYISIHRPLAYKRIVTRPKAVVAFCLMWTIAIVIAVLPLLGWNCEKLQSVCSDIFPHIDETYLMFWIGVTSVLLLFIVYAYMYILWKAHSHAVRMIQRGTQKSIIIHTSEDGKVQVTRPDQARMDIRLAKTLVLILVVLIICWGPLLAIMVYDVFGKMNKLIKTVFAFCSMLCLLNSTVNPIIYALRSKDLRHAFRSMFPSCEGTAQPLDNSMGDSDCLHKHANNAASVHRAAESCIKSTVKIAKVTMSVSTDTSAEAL

[5] = molecular target: Cholinesterase (Equus caballus, UniProt P81908); experiment: Inhibition of horse serum BuChE using butyrylthiocholine as substrate by Ellman's method
Sequence of Cholinesterase (Equus caballus, UniProt P81908) (P81908 whole entry): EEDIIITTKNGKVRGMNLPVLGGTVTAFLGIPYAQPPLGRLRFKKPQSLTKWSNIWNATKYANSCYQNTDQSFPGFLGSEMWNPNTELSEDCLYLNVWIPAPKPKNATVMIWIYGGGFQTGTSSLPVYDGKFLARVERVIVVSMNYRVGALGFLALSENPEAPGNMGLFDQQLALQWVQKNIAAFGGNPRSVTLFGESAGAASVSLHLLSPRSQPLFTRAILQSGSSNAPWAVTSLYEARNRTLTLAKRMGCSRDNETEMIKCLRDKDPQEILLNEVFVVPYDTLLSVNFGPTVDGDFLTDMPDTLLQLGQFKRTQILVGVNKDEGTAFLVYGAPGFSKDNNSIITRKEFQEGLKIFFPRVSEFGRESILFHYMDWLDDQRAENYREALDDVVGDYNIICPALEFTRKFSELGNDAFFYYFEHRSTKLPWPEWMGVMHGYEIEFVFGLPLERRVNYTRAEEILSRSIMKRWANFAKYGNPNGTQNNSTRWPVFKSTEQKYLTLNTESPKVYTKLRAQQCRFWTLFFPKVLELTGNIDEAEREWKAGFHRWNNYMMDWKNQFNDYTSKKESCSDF

[6] = molecular target: T3, Cannabinoid receptor (Mus musculus) (UniProt P47746+P47936); experiment: Agonist activity at CB1/CB2 receptor in ICR mouse vas deferens assessed as inhibition of electrically induced contractile response at 2.7 X 10^-6 M after 10 mins in presence of AM251
T3 sequence (P47746 whole entry, looked up): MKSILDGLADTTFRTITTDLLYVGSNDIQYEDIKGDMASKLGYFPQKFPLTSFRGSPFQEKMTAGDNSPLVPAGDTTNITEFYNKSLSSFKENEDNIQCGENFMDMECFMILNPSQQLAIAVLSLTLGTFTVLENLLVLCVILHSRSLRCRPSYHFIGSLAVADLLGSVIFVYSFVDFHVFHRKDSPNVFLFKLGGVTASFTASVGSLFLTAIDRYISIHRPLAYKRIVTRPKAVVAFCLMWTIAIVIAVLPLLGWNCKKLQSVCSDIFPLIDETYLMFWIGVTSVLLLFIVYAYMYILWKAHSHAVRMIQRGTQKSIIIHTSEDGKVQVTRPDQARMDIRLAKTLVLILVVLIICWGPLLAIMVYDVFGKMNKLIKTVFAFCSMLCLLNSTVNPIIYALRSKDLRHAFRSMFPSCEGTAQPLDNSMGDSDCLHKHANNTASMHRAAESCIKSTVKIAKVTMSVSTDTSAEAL
T3 sequence (P47936 whole entry, looked up): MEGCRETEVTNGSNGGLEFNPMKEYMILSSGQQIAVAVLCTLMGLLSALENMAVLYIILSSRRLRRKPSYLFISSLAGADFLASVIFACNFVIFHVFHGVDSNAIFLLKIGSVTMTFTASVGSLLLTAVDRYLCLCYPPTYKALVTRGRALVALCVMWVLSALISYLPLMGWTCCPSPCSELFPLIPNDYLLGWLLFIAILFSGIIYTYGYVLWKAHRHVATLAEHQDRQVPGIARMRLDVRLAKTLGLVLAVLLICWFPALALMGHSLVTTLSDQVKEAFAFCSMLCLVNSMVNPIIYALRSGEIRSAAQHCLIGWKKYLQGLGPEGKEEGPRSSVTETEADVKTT

[7] = molecular target: Cannabinoid receptor 1 (Mus musculus) (UniProt P47746); experiment: Agonist activity at CB1 receptor in ICR mouse vas deferens assessed as inhibition of electrically induced contractile response after 10 mins
Sequence of Cannabinoid receptor 1 (Mus musculus) (P47746 whole entry): as the sequence (P47746 whole entry, looked up) above

[8] = Antioxidant activity in phosphate buffer after 15 mins by ORAC-FL method relative to trolox; type: functional
[9] = molecular target: T3, Cannabinoid receptor (Mus musculus); experiment: Agonist activity at CB1/CB2 receptor in ICR mouse vas deferens assessed as inhibition of electrically induced contractile response at 2.7 X 10^-6 M after 10 mins in presence of AM251 and AM630
[10] = molecular target: T2, Cholinesterase; experiment: Competitive inhibition of BuChE (unknown origin) using butyrylthiocholine as substrate by Lineweaver-Burk double reciprocal plot analysis
[11] = molecular target: Cannabinoid receptor 1 (Mus musculus) (UniProt P47746); experiment: Agonist activity at CB1 receptor in ICR mouse vas deferens assessed as inhibition of electrically induced contractile response at 10^-7 to 2 X 10^-5 M after 10 mins
[12] = molecular target: T2, Cholinesterase; experiment: Mixed-type inhibition of BuChE (unknown origin) using butyrylthiocholine as substrate by Lineweaver-Burk double reciprocal plot analysis
[13] = molecular target: T2, Cholinesterase; experiment: Noncompetitive inhibition of BuChE (unknown origin) using butyrylthiocholine as substrate by Lineweaver-Burk double reciprocal plot analysis
[14] = molecular target: T1, Acetylcholinesterase; experiment: Competitive inhibition of AChE (unknown origin) by Lineweaver-Burk double reciprocal plot analysis

## c1ccc2c(c1)c(OCC1CCCCC1)nn2CC1CCCCC1
[1]
  Ki: 1.3 µM
[2]
  IC50: 7.1 µM
[3]
  IC50: > 10 µM
[4]
  Ki: 0.2 µM
[5]
  IC50: > 10 µM

## O=[N+]([O-])c1ccc2c(c1)c(OCc1cccc3ccccc13)nn2Cc1cccc2ccccc12
[1]
  Ki: 0.24 µM
[2]
  IC50: 6.7 µM
[3]
  IC50: > 10 µM
[4]
  Ki: 3.8 µM

## c1ccc2c(COc3nn(CCN4CCCC4)c4ccccc34)cccc2c1
[1]
  Ki: 0.4 µM
[2]
  IC50: > 10 µM
[6]
  inhibition: Active
[3]
  IC50: 2.83 µM
[7]
  inhibition: Dose-dependent effect
[8]
  Ratio: 0.7
[4]
  Ki: 0.56 µM
[9]
  inhibition: Active
[10]
  Ki: 1.2 µM
[11]
  inhibition: Active
[5]
  IC50: 6.7 µM

## Nc1ccc2c(c1)c(OCc1ccccc1)nn2Cc1ccccc1
[1]
  Ki: 1.6 µM
[3]
  IC50: > 10 µM
[4]
  Ki: 4 µM
[5]
  IC50: > 10 µM

## O=[N+]([O-])c1ccc2c(c1)c(OCc1ccc3ccccc3c1)nn2CCN1CCOCC1
[1]
  Ki: 0.5 µM
[2]
  IC50: > 10 µM
[3]
  IC50: > 10 µM
[4]
  Ki: 1.38 µM
[5]
  IC50: > 10 µM

## O=[N+]([O-])c1ccc2c(c1)c(OCc1ccc3ccccc3c1)nn2Cc1ccc2ccccc2c1
[1]
  Ki: > 10 µM
[2]
  IC50: > 10 µM
[3]
  IC50: > 10 µM
[4]
  Ki: > 10 µM
[5]
  IC50: > 10 µM

## O=[N+]([O-])c1ccc2c(c1)c(OCc1ccc3ccccc3c1)nn2CCN1CCCCC1
[1]
  Ki: 0.5 µM
[2]
  IC50: > 10 µM
[3]
  IC50: 3.6 µM
[4]
  Ki: 1.3 µM
[12]
  Ki: 2.9 µM
[5]
  IC50: 2.07 µM

## CCCCCOc1nn(CCCCC)c2ccc([N+](=O)[O-])cc12
[1]
  Ki: 0.68 µM
[2]
  IC50: 4.2 µM
[3]
  IC50: > 10 µM
[4]
  Ki: 1.3 µM
[5]
  IC50: > 10 µM

## COc1ccc(COc2nn(CCN(C(C)C)C(C)C)c3ccc([N+](=O)[O-])cc23)cc1
[1]
  Ki: 9 µM
[2]
  IC50: 91 µM
[3]
  IC50: > 100 µM
[4]
  Ki: > 40 µM

## COc1ccc(COc2nn(Cc3ccc(OC)cc3)c3ccccc23)cc1
[1]
  Ki: 0.9 µM
[2]
  IC50: > 10 µM
[3]
  IC50: > 10 µM
[4]
  Ki: 2.4 µM
[5]
  IC50: > 10 µM

## Nc1ccc2c(c1)c(OCc1cccc3ccccc13)nn2CCN1CCCC1
[1]
  Ki: 5 µM
[2]
  IC50: > 25 µM
[6]
  inhibition: Active
[3]
  IC50: 3 µM
[7]
  inhibition: Dose-dependent effect
[8]
  Ratio: 1.3
[4]
  Ki: 11 µM
[9]
  inhibition: Active
[10]
  Ki: 1 µM
[11]
  inhibition: Active

## O=[N+]([O-])c1ccc2c(c1)c(OCc1ccc3ccccc3c1)nn2Cc1ccccc1
[1]
  Ki: 0.4 µM
[2]
  IC50: 6.3 µM
[3]
  IC50: > 10 µM
[4]
  Ki: > 10 µM
[5]
  IC50: > 10 µM

## O=[N+]([O-])c1ccc2c(c1)c(OCc1ccccc1)nn2Cc1ccccc1
[1]
  Ki: 0.4 µM
[2]
  IC50: 7.3 µM
[3]
  IC50: > 10 µM
[4]
  Ki: 1.2 µM
[5]
  IC50: > 10 µM

## c1ccc2cc(COc3nn(CCN4CCCCC4)c4ccccc34)ccc2c1
[1]
  Ki: 2 µM
[2]
  IC50: > 10 µM
[13]
  Ki: 1.19 µM
[6]
  inhibition: inactive
[3]
  IC50: 0.97 µM
[7]
  inhibition: Dose-dependent effect
[8]
  Ratio: 0.5
[4]
  Ki: 1.4 µM
[9]
  inhibition: inactive
[11]
  inhibition: Active
[5]
  IC50: 1.4 µM

## CCCCCn1nc(OCc2ccc3ccccc3c2)c2cc([N+](=O)[O-])ccc21
[1]
  Ki: 1.37 µM
[2]
  IC50: 8.2 µM
[3]
  IC50: > 10 µM
[4]
  Ki: 1.6 µM
[5]
  IC50: > 10 µM

## c1ccc(COc2nn(Cc3ccccc3)c3ccccc23)cc1
[1]
  Ki: 3.51 µM
[2]
  IC50: 2.9 µM
[3]
  IC50: > 25 µM
[4]
  Ki: 2.6 µM

## Cc1c(C(=O)c2cccc3ccccc23)c2cccc3c2n1[C@H](CN1CCOCC1)CO3
[11]
  inhibition: Active

## c1ccc2c(COc3nn(CCN4CCCCC4)c4ccccc34)cccc2c1
[14]
  inhibition: Active
[1]
  Ki: 0.24 µM
[2]
  IC50: > 10 µM
[6]
  inhibition: Active
[3]
  IC50: 0.81 µM
[7]
  inhibition: Dose-dependent effect
[8]
  Ratio: 0.5
[4]
  Ki: 3 µM
[9]
  inhibition: Active
[10]
  Ki: 0.22 µM
[11]
  inhibition: Active
[5]
  IC50: 0.91 µM

## c1ccc2c(COc3nn(Cc4cccc5ccccc45)c4ccccc34)cccc2c1
[1]
  Ki: > 10 µM
[2]
  IC50: > 10 µM
[3]
  IC50: > 10 µM
[4]
  Ki: > 10 µM

## O=[N+]([O-])c1ccc2c(c1)c(OCC1CCCCC1)nn2Cc1ccccc1
[1]
  Ki: 0.09 µM
[2]
  IC50: > 10 µM
[3]
  IC50: > 10 µM
[4]
  Ki: > 40 µM
  inhibition: 39%
[5]
  IC50: > 10 µM

## CCCCCn1nc(OCc2ccc(OC)cc2)c2cc([N+](=O)[O-])ccc21
[1]
  Ki: 0.49 µM
[2]
  IC50: 9.7 µM
[3]
  IC50: > 10 µM
[4]
  Ki: 0.8 µM
[5]
  IC50: > 10 µM

## Nc1ccc2c(c1)c(OCc1ccc3ccccc3c1)nn2CCN1CCCCC1
[1]
  Ki: 2 µM
[2]
  IC50: > 10 µM
[6]
  inhibition: inactive
[7]
  inhibition: Dose-dependent effect
[8]
  Ratio: 0.8
[4]
  Ki: > 40 µM
[12]
  Ki: 0.38 µM
[9]
  inhibition: inactive
[11]
  inhibition: Active
[5]
  IC50: 1.5 µM

## CC(C)N(CCn1nc(OCc2cccc3ccccc23)c2ccccc21)C(C)C
[14]
  inhibition: Active
[1]
  Ki: 5.4 µM
[2]
  IC50: > 10 µM
[3]
  IC50: 0.1 µM
[4]
  Ki: > 40 µM
[10]
  Ki: 0.028 µM

## O=[N+]([O-])c1ccc2c(c1)c(OCc1cccc3ccccc13)nn2CCN1CCCC1
[1]
  Ki: 0.13 µM
[2]
  IC50: > 25 µM
[3]
  IC50: 4.5 µM
[7]
  inhibition: Dose-dependent effect
[4]
  Ki: 0.6 µM
[10]
  Ki: 2.1 µM

## COc1ccc(COc2nn(CCN(C(C)C)C(C)C)c3ccccc23)cc1
[1]
  Ki: 7.7 µM
[2]
  IC50: > 10 µM
[13]
  Ki: 2.6 µM
[6]
  inhibition: inactive
[3]
  IC50: 4.8 µM
[7]
  inhibition: Dose-dependent effect
[8]
  Ratio: 1
[4]
  Ki: > 40 µM
[9]
  inhibition: inactive
[5]
  IC50: 2.28 µM

## Brc1ccc2c(c1)c(OCc1ccc3ccccc3c1)nn2CCN1CCCCC1
[1]
  Ki: 1.8 µM
[2]
  IC50: > 10 µM
[3]
  IC50: 0.19 µM
[4]
  Ki: 1.7 µM
[10]
  Ki: 0.079 µM
